# Laboratory results published in patent publication US10995359B2, “Method for determining drug-sensitive human cell lines by analysis method in which measurement of activity of two types of protein kinase is used” (NITTO BOSEKI CO., LTD., priority 2015, dated 2021).
# How the values were obtained:
# Test in all cases: Drug sensitivity assay (cell growth test), sulforhodamine B
# Format in all cases: cell-based
# MDA-MB-468 (BL1) cells = conditions: Homo sapiens, 72 hours, read-out: inhibition rate (%) by wortmannin, classification by grid analysis
# Protocol: (§1) Cultured cells were treated with a MEK inhibitor and a PI3K inhibitor in various concentrations, and cell lines sensitive to MEK and PI3K were classified by calculating a cell growth inhibition rate. The culture method and analysis method are as follows.
# (§2) Thirteen types of cells used in the present study, HCC38 (BL1), MDA-MB-231 (MSL), DU4475 (IM), HCC1187 (IM), HCC1143 (BL1), HCC1395 (LAR), HCC1937 (BL1), MDA-MB-453 (LAR), HCC70 (BL2), HS578T (MSL), MDA-MB-157 (MSL) and MDA-MB-468 (BL1), were obtained from American type culture collection (ATCC), and SUM185PE (LAR) was obtained from ASTERAND BIOSCIENCE. All the cells belong to triple negative breast cancer (TNBC), and it is known which of six types (BL1, BL2, M, MSL, IM and LAR) these belong to by an existing classification method.
# (§3) All the cells were cultured in a medium designated from a source of supply, and 2 mM L-glutamine and 10% fetal bovine serum (FBS) were supplemented.
# (§4) Each type of cells was seeded in a 96 well titer plate at 1×10^4 cells/well, and trametinib, an MEK inhibitor (Medchem Express; 0.08, 0.16, 0.31, 0.63, 1.25, 2.5, 5, 10 and 20 μM), and wortmannin, a PI3K inhibitor (Wako Pure Chemical Industries, Ltd.; 0.08, 0.16, 0.31, 0.63, 1.25, 2.5, 5, 10 and 20 μM) were dissolved in Dimethyl Sulfoxide [DMSO] (Wako Pure Chemical Industries, Ltd.) in various concentrations and treated. In addition, the effect on cell growth was examined at 72 hours after the inhibitor by sulforhodamine B assay (manufactured by SIGMA-ALDRICH), and 50 μL of sulforhodamine B solution was added to each well and cells were left at room temperature for an hour for staining. The staining degree of metabolically survival cells was examined by monitoring absorbance at a wavelength of 565 nm using a microtiter plate. The absorbance of cells which were not treated with trametinib and wortmannin (treated with DMSO) was used as a control and defined as 100% to calculate a cell growth inhibition rate.
# (§5) The cell lines were classified into 4 types, cell lines sensitive to wortmannin (hereinafter, PA), cell lines sensitive to trametinib (hereinafter, MA), cell lines resistant to wortmannin and trametinib (hereinafter, R), and others (hereinafter, S). In the classification, first the inhibition rate of each drug was calculated in a concentration of 1 μM, and the inhibition rate (%) by trametinib and the inhibition rate (%) by wortmannin were plotted on the X axis and Y axis respectively on a graph.
# as §5, with “100 nM,” for “1 μM,”
# as §5, with “10” for “1”, “graph. Using a 50% growth inhibition rate as an index of the inhibitive effect of a drug, cells were classified into 4 types by grid analysis.” for “graph.”
# MDA-MB-157 (MSL) cells = conditions: Homo sapiens, 72 hours, read-out: inhibition rate (%) by wortmannin, classification by grid analysis
# Protocol: as §1, §2, §3, §4, §5
# as §5, with “100 nM,” for “1 μM,”
# as §5, with “10” for “1”, “graph. Using a 50% growth inhibition rate as an index of the inhibitive effect of a drug, cells were classified into 4 types by grid analysis.” for “graph.”
# SUM185PE (LAR) cells = conditions: Homo sapiens, 72 hours, read-out: inhibition rate (%) by wortmannin, classification by grid analysis
# Protocol: as §1, §2, §3, §4, §5
# as §5, with “100 nM,” for “1 μM,”
# as §5, with “10” for “1”, “graph. Using a 50% growth inhibition rate as an index of the inhibitive effect of a drug, cells were classified into 4 types by grid analysis.” for “graph.”
# HCC1143 (BL1) cells = conditions: Homo sapiens, 72 hours, read-out: inhibition rate (%) by wortmannin, classification by grid analysis
# Protocol: as §1, §2, §3, §4, §5
# as §5, with “100 nM,” for “1 μM,”
# as §5, with “10” for “1”, “graph. Using a 50% growth inhibition rate as an index of the inhibitive effect of a drug, cells were classified into 4 types by grid analysis.” for “graph.”
# HCC38 (BL1) cells = conditions: Homo sapiens, 72 hours, read-out: inhibition rate (%) by wortmannin, classification by grid analysis
# Protocol: as §1, §2, §3, §4, §5
# as §5, with “100 nM,” for “1 μM,”
# as §5, with “10” for “1”, “graph. Using a 50% growth inhibition rate as an index of the inhibitive effect of a drug, cells were classified into 4 types by grid analysis.” for “graph.”
# HCC1937 (BL1) cells = conditions: Homo sapiens, 72 hours, read-out: inhibition rate (%) by wortmannin, classification by grid analysis
# Protocol: as §1, §2, §3, §4, §5
# as §5, with “100 nM,” for “1 μM,”
# as §5, with “10” for “1”, “graph. Using a 50% growth inhibition rate as an index of the inhibitive effect of a drug, cells were classified into 4 types by grid analysis.” for “graph.”
# HCC1187 (IM) cells = conditions: Homo sapiens, 72 hours, read-out: inhibition rate (%) by wortmannin, classification by grid analysis
# Protocol: as §1, §2, §3, §4, §5
# as §5, with “100 nM,” for “1 μM,”
# as §5, with “10” for “1”, “graph. Using a 50% growth inhibition rate as an index of the inhibitive effect of a drug, cells were classified into 4 types by grid analysis.” for “graph.”
# HCC1395 (LAR) cells = conditions: Homo sapiens, 72 hours, read-out: inhibition rate (%) by wortmannin, classification by grid analysis
# Protocol: as §1, §2, §3, §4, §5
# as §5, with “100 nM,” for “1 μM,”
# as §5, with “10” for “1”, “graph. Using a 50% growth inhibition rate as an index of the inhibitive effect of a drug, cells were classified into 4 types by grid analysis.” for “graph.”
# HS578T (MSL) cells = conditions: Homo sapiens, Hs-578T, 72 hours, read-out: inhibition rate (%) by wortmannin, classification by grid analysis
# Protocol: as §1, §2, §3, §4, §5
# as §5, with “100 nM,” for “1 μM,”
# as §5, with “10” for “1”, “graph. Using a 50% growth inhibition rate as an index of the inhibitive effect of a drug, cells were classified into 4 types by grid analysis.” for “graph.”
# [1] = 100 nM, index 12.5% growth inhibition rate
# [2] = 1 μM, index 25% growth inhibition rate
# [3] = 10 μM, index 50% growth inhibition rate
smiles,measurement,setting,value
"COC[C@H]1OC(=O)c2coc3c2[C@@]1(C)C1=C(C3=O)[C@@H]2CCC(=O)[C@@]2(C)C[C@H]1OC(C)=O [wortmannin, Wortmannin]",inhibition at 0.1 µM,"MDA-MB-468 (BL1) cells; MDA-MB-468, 100 nM, index 12.5% growth inhibition rate",> 12.5%
same,inhibition at 1 µM,"MDA-MB-468 (BL1) cells; MDA-MB-468, 1 μM, index 25% growth inhibition rate",> 25%
same,inhibition at 10 µM,"MDA-MB-468 (BL1) cells; MDA-MB-468, 10 μM, index 50% growth inhibition rate",> 50%
same,inhibition at 0.1 µM,"MDA-MB-157 (MSL) cells; MDA-MB-157, 100 nM, index 12.5% growth inhibition rate",< 12.5%
same,inhibition at 1 µM,"MDA-MB-157 (MSL) cells; MDA-MB-157, 1 μM, index 25% growth inhibition rate",< 25%
same,inhibition at 10 µM,"MDA-MB-157 (MSL) cells; MDA-MB-157, 10 μM, index 50% growth inhibition rate",< 50%
same,inhibition at 0.1 µM,SUM185PE (LAR) cells; [1],> 12.5%
same,inhibition at 1 µM,SUM185PE (LAR) cells; [2],> 25%
same,inhibition at 10 µM,SUM185PE (LAR) cells; [3],> 50%
same,inhibition at 0.1 µM,"HCC1143 (BL1) cells; HCC1143, 100 nM, index 12.5% growth inhibition rate",< 12.5%
same,inhibition at 1 µM,"HCC1143 (BL1) cells; HCC1143, 1 μM, index 25% growth inhibition rate",< 25%
same,inhibition at 10 µM,"HCC1143 (BL1) cells; HCC1143, 10 μM, index 50% growth inhibition rate",< 50%
same,inhibition at 0.1 µM,"HCC38 (BL1) cells; HCC38, 100 nM, index 12.5% growth inhibition rate",< 12.5%
same,inhibition at 1 µM,"HCC38 (BL1) cells; HCC38, 1 μM, index 25% growth inhibition rate",< 25%
same,inhibition at 10 µM,"HCC38 (BL1) cells; HCC38, 10 μM, index 50% growth inhibition rate",< 50%
same,inhibition at 0.1 µM,"HCC1937 (BL1) cells; HCC1937, 100 nM, index 12.5% growth inhibition rate",< 12.5%
same,inhibition at 1 µM,"HCC1937 (BL1) cells; HCC1937, 1 μM, index 25% growth inhibition rate",< 25%
same,inhibition at 10 µM,"HCC1937 (BL1) cells; HCC1937, 10 μM, index 50% growth inhibition rate",< 50%
same,inhibition at 0.1 µM,"HCC1187 (IM) cells; HCC1187, 100 nM, index 12.5% growth inhibition rate",< 12.5%
same,inhibition at 1 µM,"HCC1187 (IM) cells; HCC1187, 1 μM, index 25% growth inhibition rate",< 25%
same,inhibition at 10 µM,"HCC1187 (IM) cells; HCC1187, 10 μM, index 50% growth inhibition rate",< 50%
same,inhibition at 0.1 µM,"HCC1395 (LAR) cells; HCC1395, 100 nM, index 12.5% growth inhibition rate",< 12.5%
same,inhibition at 1 µM,"HCC1395 (LAR) cells; HCC1395, 1 μM, index 25% growth inhibition rate",< 25%
same,inhibition at 10 µM,"HCC1395 (LAR) cells; HCC1395, 10 μM, index 50% growth inhibition rate",< 50%
same,inhibition at 0.1 µM,HS578T (MSL) cells; [1],< 12.5%
same,inhibition at 1 µM,HS578T (MSL) cells; [2],< 25%
same,inhibition at 10 µM,HS578T (MSL) cells; [3],< 50%
